According to US10202360B2 (CELGENE QUANTICEL RESEARCH, INC., priority 2016, dated 2019):

The compounds below were run against CREBBP (Homo sapiens (Human), UniProt Q92793) (assay: In vitro enzyme inhibition assay - CREBBP inhibition (AlphaScreen, biotinylated H4-tetraacetyl peptide)). Settings: Table 28; AlphaScreen, H4-tetraacetyl peptide.
Assay type: binding
How it was run: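 Displacement of 20 nM biotinylated tetraacetyl-H4 peptide from 50 nM E. coli-expressed His-CREBBP, measured by AlphaScreen after bead equilibration for 2 h.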

Sequence of CREBBP (Q92793 1081-1197): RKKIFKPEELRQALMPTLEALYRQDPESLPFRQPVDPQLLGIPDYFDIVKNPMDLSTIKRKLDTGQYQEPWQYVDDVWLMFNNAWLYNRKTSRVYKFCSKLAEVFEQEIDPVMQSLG

| SMILES | IC50 |
| --- | --- |
| Cc1cc(-c2cc(S(C)(=O)=O)nc(Oc3ccc(F)cc3F)n2)cn(C)c1=O [Example 132, 5-[2-(2,4-Difluoro-phenoxy)-6-methanesulfonyl-pyrimidin-4-yl]-1,3-dimethyl-1H-pyridin-2-one] | < 500 nM |
| Cc1cccc(Cl)c1Oc1nc(-c2cc(C)c(=O)n(C)c2)cc(S(C)(=O)=O)n1 [Example 133, 5-[2-(2-Chloro-6-methyl-phenoxy)-6-methanesulfonyl-pyrimidin-4-yl]-1,3-dimethyl-1H-pyridin-2-one] | < 500 nM |
| Cc1cc(-c2cc(S(=O)(=O)C(C)C)nc(Oc3ccc(F)cc3F)n2)cn(C)c1=O [Example 134, 5-[2-(2,4-Difluoro-phenoxy)-6-(propane-2-sulfonyl)-pyrimidin-4-yl]-1,3-dimethyl-1H-pyridin-2-one] | < 500 nM |
| Cc1cccc(Cl)c1Oc1nc(-c2cc(C)c(=O)n(C)c2)cc(S(=O)(=O)C(C)C)n1 [Example 135, 5-[2-(2-Chloro-6-methyl-phenoxy)-6-(propane-2-sulfonyl)-pyrimidin-4-yl]-1,3-dimethyl-1H-pyridin-2-one] | < 500 nM |
| CCCCS(=O)(=O)Nc1cc(-c2cc(C)c(=O)n(C)c2)nc(Oc2c(F)cccc2Cl)n1 [Example 138, Butane-1-sulfonic acid [2-(2-chloro-6-fluoro-phenoxy)-6-(1,5-dimethyl-6-oxo-1,6-dihydro-pyridin-3-yl)-pyrimidin-4-yl]-amide] | < 500 nM |
| CCS(=O)(=O)Nc1cc(-c2cc(C)c(=O)n(C)c2)nc(OC(C)C)n1 [Example 140, Ethanesulfonic acid [6-(1,5-dimethyl-6-oxo-1,6-dihydro-pyridin-3-yl)-2-isopropoxy-pyrimidin-4-yl]-amide] | < 500 nM |
| CCCS(=O)(=O)Nc1cc(-c2cc(C)c(=O)n(C)c2)nc(Oc2c(F)cccc2Cl)n1 [Example 141, Propane-1-sulfonic acid [2-(2-chloro-6-fluoro-phenoxy)-6-(1,5-dimethyl-6-oxo-1,6-dihydro-pyridin-3-yl)-pyrimidin-4-yl]-amide] | < 500 nM |
| Cc1cc(-c2cc(NS(=O)(=O)C(C)C)nc(Oc3c(F)cccc3Cl)n2)cn(C)c1=O [Example 142, Propane-2-sulfonic acid [2-(2-chloro-6-fluoro-phenoxy)-6-(1,5-dimethyl-6-oxo-1,6-dihydro-pyridin-3-yl)-pyrimidin-4-yl]-amide] | < 500 nM |
| CCS(=O)(=O)Nc1cc(-c2cc(C)c(=O)n(C)c2)nc(OC(C)c2ccccc2)n1 (stereo not drawn) [Example 147, Ethanesulfonic acid [6-(1,5-dimethyl-6-oxo-1,6-dihydro-pyridin-3-yl)-2-(1-phenyl-ethoxy)-pyrimidin-4-yl]-amide] | < 500 nM |
| CCS(=O)(=O)Nc1cc(-c2cc(C)c(=O)n(C)c2)nc(OCC(F)(F)F)n1 [Example 151, N-(6-(1,5-dimehtyl-6-oxo-1,6-dihydropyridin-3-yl)-2-(2,2,2-trifluoroethoxy)pyrimidin-4-yl)ethanesulfonamide] | < 500 nM |
| Cc1cc(-c2cc(NS(=O)(=O)C(C)C)nc(OCC(C)C)n2)cn(C)c1=O [Example 152, N-(6-(1,5-dimethyl-6-oxo-1,6-dihydropyridin-3-yl)-2-isobutoxypyrimidin-4-yl)propane-2-sulfonamide] | < 500 nM |
| CCS(=O)(=O)Nc1nc(Oc2c(C)cccc2C)nc(-c2cc(C)c(=O)n(C)c2)n1 [Example 153, Ethanesulfonic acid [4-(1,5-dimethyl-6-oxo-1,6-dihydro-pyridin-3-yl)-6-(2,6-dimethyl-phenoxy)-[1,3,5]triazin-2-yl]-amide] | < 500 nM |
| CCCS(=O)(=O)Nc1nc(Oc2c(C)cccc2C)nc(-c2cc(C)c(=O)n(C)c2)n1 [Example 154, Propane-1-sulfonic acid [4-(1,5-dimethyl-6-oxo-1,6-dihydro-pyridin-3-yl)-6-(2,6-dimethyl-phenoxy)-[1,3,5]triazin-2-yl]-amide] | < 500 nM |
| Cc1cccc(C)c1Oc1nc(NS(=O)(=O)C(C)C)nc(-c2cc(C)c(=O)n(C)c2)n1 [Example 155, Propane-2-sulfonic acid [4-(1,5-dimethyl-6-oxo-1,6-dihydro-pyridin-3-yl)-6-(2,6-dimethyl-phenoxy)-[1,3,5]triazin-2-yl]-amide] | < 500 nM |
| CCCS(=O)(=O)Nc1cc(-c2cc(C)c(=O)n(C)c2)nc(-c2ccccc2)n1 [Example 156, N-(6-(1,5-dimethyl-6-oxo-1,6-dihydropyridin-3-yl)-2-phenylpyrimidin-4-yl)propane-1-sulfonamide] | 500 to 5000 nM |

Other lines, results leading:

| IC50 | SMILES |
| --- | --- |
| < 500 nM | Cc1cccc(F)c1Oc1nc(NS(=O)(=O)CCCF)cc(-c2ccc(=O)n(C)c2)n1 [Example 136, 3-Fluoro-propane-1-sulfonic acid [2-(2-fluoro-6-methyl-phenoxy)-6-(1-methyl-6-oxo-1,6-dihydro-pyridin-3-yl)-pyrimidin-4-yl]-amide] |
| < 500 nM | CCC(C)S(=O)(=O)Nc1cc(-c2ccc(=O)n(C)c2)nc(Oc2c(C)cccc2F)n1 (stereo not drawn) [Example 137, Butane-2-sulfonic acid [2-(2-fluoro-6-methyl-phenoxy)-6-(1-methyl-6-oxo-1,6-dihydro-pyridin-3-yl)-pyrimidin-4-yl]-amide] |
| < 500 nM | CCCCS(=O)(=O)Nc1cc(-c2ccc(=O)n(C)c2)nc(Oc2c(F)cccc2Cl)n1 [Example 139, Butane-1-sulfonic acid [2-(2-chloro-6-fluoro-phenoxy)-6-(1-methyl-6-oxo-1,6-dihydro-pyridin-3-yl)-pyrimidin-4-yl]-amide] |
| < 500 nM | CCCS(=O)(=O)Nc1cc(-c2ccc(=O)n(C)c2)nc(Oc2c(F)cccc2Cl)n1 [Example 143, Propane-1-sulfonic acid [2-(2-chloro-6-fluoro-phenoxy)-6-(1-methyl-6-oxo-1,6-dihydro-pyridin-3-yl)-pyrimidin-4-yl]-amdie] |
| < 500 nM | CC(C)S(=O)(=O)Nc1cc(-c2ccc(=O)n(C)c2)nc(Oc2c(F)cccc2Cl)n1 [Example 144, Propane-2-sulfonic acid [2-(2-chloro-6-fluoro-phenoxy)-6-(1-methyl-6-oxo-1,6-dihydro-pyridin-3-yl)-pyrimidin-4-yl]-amide] |
| < 500 nM | Cc1cccc(F)c1Oc1nc(NS(=O)(=O)CCCC(F)(F)F)cc(-c2ccc(=O)n(C)c2)n1 [Example 146, 4,4,4-Trifluoro-butane-1-sulfonic acid [2-(2-fluoro-6-methyl-phenoxy)-6-(1-methyl-6-oxo-1,6-dihydro-pyridin-3-yl)-pyrimidin-4-yl]-amide] |
| < 500 nM | Cn1cc(-c2cc(NS(=O)(=O)CCCF)nc(Oc3c(F)cccc3Cl)n2)ccc1=O [Example 148, N-(2-(2-chloro-6-fluorophenoxy)-6-(1-methyl-6-oxo-1,6-dihydropyridin-3 yl)pyrimidin-4-yl)-3-fluoropropane-1-sulfonamide] |
| < 500 nM | Cc1cccc(C#N)c1Oc1nc(NS(=O)(=O)CCC(F)(F)F)cc(-c2ccc(=O)n(C)c2)n1 [Example 149, N-(2-(2-cyano-6-methylphenoxy)-6-(1-methyl-6-oxo-1,6-dihydropyridin-3-yl)pyrimidin-4-yl)-3,3,3-trifluoropropane-1-sulfonamide] |
| < 500 nM | Cc1cccc(C#N)c1Oc1nc(NS(=O)(=O)CCCC(F)(F)F)cc(-c2ccc(=O)n(C)c2)n1 [Example 150, N-(2-(2-cyano-6-methylphenoxy)-6-(1-methyl-6-oxo-1,6-dihdyropyridin-3-yl)pyrimidin-4-yl)-4,4,4-trifluorobutane-1-sulfonamide] |
